Data: article PMC9232612, “A phase 1b randomised controlled trial of a glucagon-like peptide-1 and glucagon receptor dual agonist IBI362 (LY3305677) in Chinese patients with type 2 diabetes” (Nature Communications, 2022)

Legend:
Assay type in all cases: in vivo, human
[1] = tested on: Chinese patients with T2D; experiment: Mixed-meal tolerance test (MTT): plasma glucose and glucose AUC0-4 h; settings: 1.5 mg once weekly, n=6
Protocol: (§1) HbA1c (2200101, Bio-Rad, USA), blood glucose (05168791190, Roche Diagnostics, Germany), insulin (12017547122, Roche Diagnostics, Germany), C peptide (03184897190, Roche Diagnostics, Germany), total GLP-1 (GLP-1 [7–36] amide and its metabolite, GLP-1 [9–36] amide, 10-1278-01, Mercodia AB, Sweden) and OXM (AL-139, AnshLabs, USA) tests were performed according to the manufactures’ instruction manuals in a central laboratory (KingMed Diagnostics, Guangzhou, China). HbA1c was measured using a Bio-rad D-100 Haemoglobin Testing System (Bio-rad). Blood glucose was measured using a Roche Cobas c702 analyser (Roche Diagnostics). Insulin and C peptide were measured using a Roche […] analyser (Roche Diagnostics). GLP-1 and OXM were measured using a Tecan Infinite M Plex microplate reader (TECAN).
(§2) Standard non-compartmental pharmacokinetics methods were used to analyze IBI362 plasma concentration data using Pkanalix 2020R1 (Lixoft, Antony, France). Secondary efficacy outcomes included change from baseline to week 12 in HbA1c, fasting plasma glucose (FPG), fasting insulin levels, change from baseline to week 12 in post-mixed-meal tolerance test (post-MTT) glucose, insulin, C peptide, GLP-1 and OXM levels, as well as seven-point self-measured blood glucose (SMBG) profile.
The analyses for change from baseline in HbA1c, FPG, post-MTT glucose AUC0–4 h and body weight were performed using the mixed-effect model for repeated measures (MMRM) with least-squares means and standard error provided. The MMRM included the corresponding baseline value, treatment, visit and treatment-by-visit as fixed effects and patient as a random effect. Mean change or mean percent change from baseline were analysed using a restricted maximum likelihood (REML)‐based repeated measures approach in combination with the Newton Raphson Algorithm. The fix effect of visit was fitted as a repeated effect and an unstructured covariance matrix was used. In case of non-converge, matrix like Variance Components and Compound Symmetry will be tested in a subsequent order until model‐convergence is achieved. The Kenward-Roger degree of freedom was used in estimating fixed effects. No missing data imputation was conducted. For HbA1c, FPG and body weight, point estimate of treatment difference versus placebo and 90% CI were provided for each IBI362 dose group and the dulaglutide group, with nominal p values. […]
(§3) 3. Standard meal test (MTT) collection measures included: insulin, C-peptide, plasma glucose, glucagon, endogenous OXM, and endogenous GLP-1. The sampling points include: fasting, 30 min, 1h, 2h, 3h and 4h.
(§4) A total of 9 mL blood will be collected from each blood collection point. See the manual of the central laboratory for the detailed operation process. Fasting state refers to fasting for 10 hours. [ The standard meal is
(§5) instant noodles. The master Kang roast beef noodles (bucket noodles) purchased by the sponsor in a unified manner are removed from the oil bag. The noodles are soaked in boiled water and then removed. The seasoning
(§6) bag is added and mixed well. The time is counted from the first bite of eating. The noodles are eaten within 10 minutes, and 200 mL of water is drunk; or the instant noodles are directly opened with 200 mL of boiled
(§7) water to ensure that the noodles are eaten and the water or soup is drunk]. Visit days when MTT test is performed: 1 day prior to Cycle 1 administration, Day 80 (D80). […]
(§8) ● Test by central laboratory

[2] = tested on: Chinese patients with T2D; experiment: Mixed-meal tolerance test (MTT): insulin; settings: 1.5 mg once weekly, n=6
Protocol: as §1
as §2, with “profile. […]” for “profile.”
as §3, §4, §5, §6, §7, §8

[3] = tested on: Chinese patients with T2D; experiment: Lipids (total cholesterol, LDL cholesterol, triglycerides); settings: Dulaglutide group; mean
Protocol: Fig. S8: Change from baseline in lipids levels at week 12.
Data are plotted as means +/- SD. IBI362 3.0 mg n = 7; IBI362 4.5 mg n = 5; IBI362 6.0 mg n = 8; Pooled placebo n = 10; Dulaglutide n = 6. CFB = change from baseline; LDL = low density lipoprotein; SD = standard deviation. Source data are provided as a Source Data file.
Total cholesterol LDL cholesterol Triglycerides
CFB in lipids at week 12 (mmol/L),
(1 picture or pasted object on this page, not shown here) […]
Table 4 Routine laboratory safety assessments […]
Lipids Total cholesterol (TC), triglyceride (TG), high-density lipoprotein cholesterol (HDL-C), and low-density lipoprotein cholesterol (LDL-C). […]

[4] = tested on: Chinese patients with T2D; experiment: Fasting plasma glucose (FPG); settings: 1.5 mg once weekly, MMRM
Protocol: as §1, §2
The analyses for change from baseline in HbA1c, FPG, post-MTT glucose AUC0–4 h and body weight were performed using the mixed-effect model for repeated measures (MMRM) with least-squares means and standard error provided. The MMRM included the corresponding baseline value, treatment, visit and treatment-by-visit as fixed effects and patient as a random effect. Mean change or mean percent change from baseline were analysed using a restricted maximum likelihood (REML)‐based repeated measures approach in combination with the Newton Raphson Algorithm. The fix effect of visit was fitted as a repeated effect and an unstructured covariance matrix was used. In case of non-converge, matrix like Variance Components and Compound Symmetry will be tested in a subsequent order until model‐convergence is achieved. The Kenward-Roger degree of freedom was used in estimating fixed effects. No missing data imputation was conducted. For HbA1c, FPG and body weight, point estimate of treatment difference versus placebo and 90% CI were provided for each IBI362 dose group and the dulaglutide group, with nominal p values.

## Dulaglutide: open-label active reference, subcutaneously once weekly at a fixed dose of 1.5 mg [reference compound]
[1]; MMRM
  Percent change from baseline to week 12 in post-MTT glucose AUC0-4 h, LS mean: -41.70%
[1]; week 12, 0 min
  Glucose during MTT, mean: 7.18 mmol/L
[1]; week 12, 30 min
  Glucose during MTT, mean: 9.32 mmol/L
[1]; week 12, 60 min
  Glucose during MTT, mean: 11.86 mmol/L
[1]; week 12, 120 min
  Glucose during MTT, mean: 9.62 mmol/L
[1]; week 12, 180 min
  Glucose during MTT, mean: 7.11 mmol/L
[1]; week 12, 240 min
  Glucose during MTT, mean: 6.79 mmol/L
[2]; week 12, 0 min
  Insulin during MTT, mean: 13.40 μU/mL
[2]; week 12, 30 min
  Insulin during MTT, mean: 30.21 μU/mL
[2]; week 12, 60 min
  Insulin during MTT, mean: 53.77 μU/mL
[2]; week 12, 120 min
  Insulin during MTT, mean: 63.25 μU/mL
[2]; week 12, 180 min
  Insulin during MTT, mean: 30.85 μU/mL
[2]; week 12, 240 min
  Insulin during MTT, mean: 21.56 μU/mL
[3]
  Change from baseline to week 12 in LDL cholesterol: -0.32 mmol/L
  Change from baseline to week 12 in total cholesterol: -0.58 mmol/L
  Change from baseline to week 12 in triglycerides: -0.58 mmol/L
[4]; week 4, n=6
  Change from baseline in fasting plasma glucose, LS mean: -3.19 mmol/L
[4]; week 8, n=6
  Change from baseline in fasting plasma glucose, LS mean: -3.36 mmol/L
[4]; week 12, n=6
  Change from baseline in fasting plasma glucose, LS mean (SE): -3.85 mmol/L
[4]; week 12
  Fasting plasma glucose: ETD versus placebo, LS mean (90% CI): -1.32 mmol/L
